{"source": "paper PMC4501059", "about": "“Responding to the challenge of untreatable gonorrhea: ETX0914, a first-in-class agent with a distinct mechanism-of-action against bacterial Type II topoisomerases” (Scientific Reports, 2015)", "key": {"[1]": {"conditions": "rat, in vivo"}, "in vivo": {"assay": "in vivo", "conditions": "rat, po"}, "[2]": {"assay": "Quantitative whole-body autoradiography, tissue distribution of radioactivity", "type": "in vivo, male pigmented Lister Hood rat", "description": "Quantitative whole-body autoradiography. The distribution of radioactivity in male, pigmented Lister Hood rat tissues was obtained after a single intravenous infusion over 15 minutes of ^14C-AZD0914 at 25 mg/kg (51 μmol/kg, 5 MBq/kg) using quantitative whole-body autoradiography with phosphor-imaging technology. The potential of this compound and/or its metabolites to bind to melanin-containing tissues and/or to potentially bind covalently to tissues was also evaluated. The rats were sacrificed at 5 minutes, 1 hour, 4 hours, 24 hours, 48 hours, 7 days and 21 days after the end of infusion with enflurane (Efrane®, Abbott Laboratories, USA), and frozen in acetone, cooled to -70 °C with solid CO2. The 7- and 21- day animals could not be quantified as no trace of radioactivity was observed. After removal of limbs and tail, the carcass was embedded, with left lateral side uppermost, in a 2.5% (w/v) aqueous solution of caramellosum natricum and frozen for at least 10 minutes. The animal blocks were stored at -20 °C until sectioning. Sagittal whole-body sections (30 μm) were obtained to include organs and tissues of interest. At sectioning each block was mounted in a Leica CM3600 Cryomacrotome (Leica Microsystems GmbH, Germany) maintained at approximately -20 °C. All sections were dried at -20 °C for at least 1 day prior to exposure on phosphor-imaging plates. Together with two sets of calibration standards, the sections were placed on phosphor-imaging plates, which had been pre-covered with a thin plastic film. The imaging plates were exposed for 1 to 3 days at +4 to +12 °C, enclosed in light tight cassettes in a lead shielding box to protect from environmental radiation. Following exposure, the imaging plates were scanned at a pixel size of 50 μm using FLA-7000 (FujiFilm Sverige AB, Sweden). The tissues and organs of interest were quantified using AIDA 3.5 (Raytest, Germany). The quantification limit was defined as twice the background value of the imaging plate and varied between the plates from 0.23 to 0.33 nmol/g. The various tissues and organs were identified either on the autoradiograms or on the corresponding tissue sections."}, "[3]": {"assay": "plasma protein binding, mouse", "conditions": "in vitro at 1-50 µM"}, "[4]": {"assay": "Human plasma protein binding (PPB)", "conditions": "independent of concentration 1–50 μM"}, "[5]": {"conditions": "5 minutes after 25 mg/kg iv infusion"}, "[6]": {"conditions": "1 hour after 25 mg/kg iv infusion"}, "[7]": {"conditions": "4 hours after 25 mg/kg iv infusion"}}, "data": [{"smiles": "CC(=O)NC[C@H]1CN(c2ccc(N3CCOCC3)c(F)c2)C(=O)O1", "note": "[Linezolid]", "values": [{"measurement": "neutrophil count", "setting": "[1]", "result": "showing suppression"}, {"measurement": "reticulocytes count", "setting": "[1]; 250 mg/kg", "result": "significant suppression"}, {"measurement": "AUC", "setting": "in vivo", "result": 1900, "unit": "µM·h"}]}, {"smiles": "C[C@@H]1CN2c3c(cc4c(N5C(=O)OC[C@@H]5C)noc4c3F)C[14C]3(C(=O)NC(=O)NC3=O)[C@H]2[C@H](C)O1", "note": "[^14C-ETX0914]", "values": [{"measurement": "Total radioactivity: Adrenal cortex", "setting": "[2]; [5]", "result": 84, "unit": "nmol/g"}, {"measurement": "Total radioactivity: Adrenal medulla", "setting": "[2]; [5]", "result": 43, "unit": "nmol/g"}, {"measurement": "Total radioactivity: Aortic wall", "setting": "[2]; [5]", "result": 53, "unit": "nmol/g"}, {"measurement": "Total radioactivity: Bile", "setting": "[2]; [5]", "result": 1200, "unit": "nmol/g"}, {"measurement": "Total radioactivity: Bone marrow", "setting": "[2]; [5]", "result": 35, "unit": "nmol/g"}, {"measurement": "Total radioactivity: Brain", "setting": "[2]; [5]", "result": 0.79, "unit": "nmol/g"}, {"measurement": "Total radioactivity: Choroid & retinal pigment epithelium", "setting": "[2]; [5]", "result": 16, "unit": "nmol/g"}, {"measurement": "Total radioactivity: Heart blood", "setting": "[2]; [5]", "result": 27, "unit": "nmol/g"}, {"measurement": "Total radioactivity: Liver", "setting": "[2]; [5]", "result": 320, "unit": "nmol/g"}, {"measurement": "Total radioactivity: Lung", "setting": "[2]; [5]", "result": 52, "unit": "nmol/g"}, {"measurement": "Total radioactivity: Lymph node", "setting": "[2]; [5]", "result": 29, "unit": "nmol/g"}, {"measurement": "Total radioactivity: Myocardium", "setting": "[2]; [5]", "result": 73, "unit": "nmol/g"}, {"measurement": "Total radioactivity: Renal cortex", "setting": "[2]; [5]", "result": 170, "unit": "nmol/g"}, {"measurement": "Total radioactivity: Renal medulla (inner)", "setting": "[2]; [5]", "result": 70, "unit": "nmol/g"}, {"measurement": "Total radioactivity: Renal medulla (outer)", "setting": "[2]; [5]", "result": 68, "unit": "nmol/g"}, {"measurement": "Total radioactivity: Skeletal muscle", "setting": "[2]; [5]", "result": 29, "unit": "nmol/g"}, {"measurement": "Total radioactivity: Skin, pigmented", "setting": "[2]; [5]", "result": 15, "unit": "nmol/g"}, {"measurement": "Total radioactivity: Spinal cord", "setting": "[2]; [5]", "result": 1.0, "unit": "nmol/g"}, {"measurement": "Total radioactivity: Testis", "setting": "[2]; [5]", "result": 2.4, "unit": "nmol/g"}, {"measurement": "Total radioactivity: Urine", "setting": "[2]; [5]", "result": 51, "unit": "nmol/g"}, {"measurement": "Total radioactivity: White fat", "setting": "[2]; [5]", "result": 6.6, "unit": "nmol/g"}, {"measurement": "Total radioactivity: Adrenal cortex", "setting": "[2]; [6]", "result": 40, "unit": "nmol/g"}, {"measurement": "Total radioactivity: Adrenal medulla", "setting": "[2]; [6]", "result": 26, "unit": "nmol/g"}, {"measurement": "Total radioactivity: Aortic wall", "setting": "[2]; [6]", "result": 58, "unit": "nmol/g"}, {"measurement": "Total radioactivity: Bile", "setting": "[2]; [6]", "result": 1500, "unit": "nmol/g"}, {"measurement": "Total radioactivity: Bone marrow", "setting": "[2]; [6]", "result": 20, "unit": "nmol/g"}, {"measurement": "Total radioactivity: Brain", "setting": "[2]; [6]", "result": 0.72, "unit": "nmol/g"}, {"measurement": "Total radioactivity: Choroid & retinal pigment epithelium", "setting": "[2]; [6]", "result": 17, "unit": "nmol/g"}, {"measurement": "Total radioactivity: Heart blood", "setting": "[2]; [6]", "result": 18, "unit": "nmol/g"}, {"measurement": "Total radioactivity: Liver", "setting": "[2]; [6]", "result": 190, "unit": "nmol/g"}, {"measurement": "Total radioactivity: Lung", "setting": "[2]; [6]", "result": 31, "unit": "nmol/g"}, {"measurement": "Total radioactivity: Lymph node", "setting": "[2]; [6]", "result": 23, "unit": "nmol/g"}, {"measurement": "Total radioactivity: Myocardium", "setting": "[2]; [6]", "result": 42, "unit": "nmol/g"}, {"measurement": "Total radioactivity: Renal cortex", "setting": "[2]; [6]", "result": 130, "unit": "nmol/g"}, {"measurement": "Total radioactivity: Renal medulla (inner)", "setting": "[2]; [6]", "result": 32, "unit": "nmol/g"}, {"measurement": "Total radioactivity: Renal medulla (outer)", "setting": "[2]; [6]", "result": 120, "unit": "nmol/g"}, {"measurement": "Total radioactivity: Skeletal muscle", "setting": "[2]; [6]", "result": 20, "unit": "nmol/g"}, {"measurement": "Total radioactivity: Skin, pigmented", "setting": "[2]; [6]", "result": 20, "unit": "nmol/g"}, {"measurement": "Total radioactivity: Spinal cord", "setting": "[2]; [6]", "result": 1.0, "unit": "nmol/g"}, {"measurement": "Total radioactivity: Testis", "setting": "[2]; [6]", "result": 5.7, "unit": "nmol/g"}, {"measurement": "Total radioactivity: Urine", "setting": "[2]; [6]", "result": 400, "unit": "nmol/g"}, {"measurement": "Total radioactivity: White fat", "setting": "[2]; [6]", "result": 8.9, "unit": "nmol/g"}, {"measurement": "Total radioactivity: Adrenal cortex", "setting": "[2]; [7]", "result": 8.7, "unit": "nmol/g"}, {"measurement": "Total radioactivity: Adrenal medulla", "setting": "[2]; [7]", "result": 4.5, "unit": "nmol/g"}, {"measurement": "Total radioactivity: Aortic wall", "setting": "[2]; [7]", "result": 13, "unit": "nmol/g"}, {"measurement": "Total radioactivity: Bone marrow", "setting": "[2]; [7]", "result": 4.0, "unit": "nmol/g"}, {"measurement": "Total radioactivity: Choroid & retinal pigment epithelium", "setting": "[2]; [7]", "result": 8.1, "unit": "nmol/g"}, {"measurement": "Total radioactivity: Heart blood", "setting": "[2]; [7]", "result": 4.2, "unit": "nmol/g"}, {"measurement": "Total radioactivity: Liver", "setting": "[2]; [7]", "result": 69, "unit": "nmol/g"}, {"measurement": "Total radioactivity: Lung", "setting": "[2]; [7]", "result": 6.9, "unit": "nmol/g"}, {"measurement": "Total radioactivity: Lymph node", "setting": "[2]; [7]", "result": 4.1, "unit": "nmol/g"}, {"measurement": "Total radioactivity: Myocardium", "setting": "[2]; [7]", "result": 6.9, "unit": "nmol/g"}, {"measurement": "Total radioactivity: Renal cortex", "setting": "[2]; [7]", "result": 39, "unit": "nmol/g"}, {"measurement": "Total radioactivity: Renal medulla (inner)", "setting": "[2]; [7]", "result": 8.0, "unit": "nmol/g"}, {"measurement": "Total radioactivity: Renal medulla (outer)", "setting": "[2]; [7]", "result": 18, "unit": "nmol/g"}, {"measurement": "Total radioactivity: Skeletal muscle", "setting": "[2]; [7]", "result": 4.2, "unit": "nmol/g"}, {"measurement": "Total radioactivity: Skin, pigmented", "setting": "[2]; [7]", "result": 3.6, "unit": "nmol/g"}, {"measurement": "Total radioactivity: Spinal cord", "setting": "[2]; [7]", "result": 0.30, "unit": "nmol/g"}, {"measurement": "Total radioactivity: Testis", "setting": "[2]; [7]", "result": 2.6, "unit": "nmol/g"}, {"measurement": "Total radioactivity: Urine", "setting": "[2]; [7]", "result": 100, "unit": "nmol/g"}, {"measurement": "Total radioactivity: Brain", "setting": "[2]; 4 hours after 25 mg/kg iv infusion, BLQ = below limit of quantification (0.24)", "result": "BLQ^d"}, {"measurement": "Total radioactivity: Liver", "setting": "[2]; 24 hours after 25 mg/kg iv infusion", "result": 0.35, "unit": "nmol/g"}, {"measurement": "Total radioactivity: Liver", "setting": "[2]; 48 hours after 25 mg/kg iv infusion, BLQ = below limit of quantification (0.24)", "result": "BLQ"}, {"measurement": "melanin or covalent binding of parent and/or metabolites to tissue", "setting": "[2]; pigmented rat", "result": "no melanin or covalent binding"}, {"measurement": "CNS penetration", "setting": "[2]; rat, whole-body autoradiography", "result": "very low CNS penetration"}, {"measurement": "PPB (%free)", "setting": "[3]", "result": 22.1, "unit": "%free"}, {"measurement": "PPB (%free)", "setting": "[4]", "result": 17.0, "unit": "% free"}]}]}
